# According to patent US8987195B2 (priority 2012, dated 2015):
# Like-named read-outs stand apart in the source and are kept apart here.
# Columns and labels:
# HCV genotype 1b replicon = assay: HCV replicon assay, genotype 1b replicon EC50; type: cell-based, Hepatitis C virus; conditions: Hepatitis C virus, genotype 1b replicon, read-out: EC50 [gt-1b]
# Summary of the method: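 Stable neomycin phosphotransferase-encoding replicon cell lines, kept under G418 selection beforehand, were plated with a compound dilution series without G418 and incubated 24-48 hours. Replicon RNA was then quantified, or luciferase activity read. EC50 was calculated as percent of DMSO control by four-parameter fit.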
# [1] = target: HCV NS3/4A protease genotype 1b (Hepatitis C virus genotype 1b, UniProt P26663); assay: HCV NS3/4A protease time-resolved fluorescence (TRF) assay, Ki against genotype 1b; type: biochemical; conditions: IC50 [gt-1b] (nM), NS3/4A genotype 1b, enzyme 0.2 nM
# Summary of the method: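 Enzyme was pre-incubated 30 min with inhibitor in HEPES pH 7.5 buffer (150 mM NaCl, 15% glycerol, 10 mM DTT). Reaction ran 2.5 h at room temperature with 25 nM europium TRF peptide substrate, read at ex 340/em 615 nm. Enzyme levels: 0.2 nM (1b), 0.4 nM (A156T), 0.025 nM (3a). Ki came from four-parameter IC50 via IC50=Ki(1+[S]/KM).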
Structure (SMILES),EC50 (HCV genotype 1b replicon; HCOOH salt) [nM],IC50 ([1]; HCOOH salt) [nM],EC50 (HCV genotype 1b replicon) [nM],IC50 [1] [nM]
"CCCCNC(=O)N[C@H]1CCCCC/C=C\[C@@H]2C[C@@]2(C(=O)NS(=O)(=O)C2(C)CC2)NC(=O)[C@@H]2C[C@]3(CCc4c(c(C)nc5ccccc45)O3)CN2C1=O [Example 287, (2R,6S,12Z,13aS,14aR,16aS)-6-[(butylcarbamoyl)amino]-5′-methyl-N-[(1-methylcyclopropyl)sulfonyl]-5,16-dioxo-1,1′,2′,6,7,8,9,10,11,13a,14,15,16,16a-tetradecahydrospiro[cyclopropa[e]pyrrolo[1,2-a][1,4]diazacyclopentadecine-2,3′-pyrano[2,3-c]quinoline]-14a(5H)-carboxamide]",23,0.013,,
"Cc1nc2ccccc2c2c1O[C@]1(CC2)C[C@H]2C(=O)N[C@]3(C(=O)NS(=O)(=O)C4(C)CC4)C[C@H]3/C=C\CCCCC[C@H](NC(=O)NCCc3ccccc3)C(=O)N2C1 [Example 288, (2R,6S,12Z,13aS,14aR,16aS)-5′-methyl-N-[(1-methylcyclopropyl)sulfonyl]-5,16-dioxo-6-{[(2-phenylethyl)carbamoyl]amino}-1,1′,2′,6,7,8,9,10,11,13a,14,15,16,16a-tetradecahydrospiro[cyclopropa[e]pyrrolo[1,2-a][1,4]diazacyclopentadecine-2,3′-pyrano[2,3-c]quinoline]-14a(5H)-carboxamide]",614,0.131,,
"CCN(CC)C(=O)N[C@H]1CCCCC/C=C\[C@@H]2C[C@@]2(C(=O)NS(=O)(=O)C2(C)CC2)NC(=O)[C@@H]2C[C@]3(CCc4c(c(C)nc5ccccc45)O3)CN2C1=O [Example 289, (2R,6S,12Z,13aS,14aR,16aS)-6-[(diethylcarbamoyl)amino]-5′-methyl-N-[(1-methylcyclopropyl)sulfonyl]-5,16-dioxo-1,1′,2′,6,7,8,9,10,11,13a,14,15,16,16a-tetradecahydrospiro[cyclopropa[e]pyrrolo[1,2-a][1,4]diazacyclopentadecine-2,3′-pyrano[2,3-c]quinoline]-14a(5H)-carboxamide]",7,0.023,,
"Cc1nc2ccccc2c2c1O[C@]1(CC2)C[C@H]2C(=O)N[C@]3(C(=O)NS(=O)(=O)C4(C)CC4)C[C@H]3/C=C\CCCCC[C@H](NC(=O)N3CCCCC3)C(=O)N2C1 [Example 290, (2R,6S,12Z,13aS,14aR,16aS)-5′-methyl-N-[(1-methylcyclopropyl)sulfonyl]-5,16-dioxo-6-[(piperidin-1-ylcarbonyl)amino]-1,1′,2′,6,7,8,9,10,11,13a,14,15,16,16a-tetradecahydrospiro[cyclopropa[e]pyrrolo[1,2-a][1,4]diazacyclopentadecine-2,3′-pyrano[2,3-c]quinoline]-14a(5H)-carboxamide]",7.02,0.017,,
"Cc1nc2ccccc2c2c1O[C@]1(CC2)C[C@H]2C(=O)N[C@]3(C(=O)NS(=O)(=O)C4(C)CC4)C[C@H]3/C=C\CCCCC[C@H](NC(=O)N3CCOCC3)C(=O)N2C1 [Example 291, (2R,6S,12Z,13aS,14aR,16aS)-5′-methyl-N-[(1-methylcyclopropyl)sulfonyl]-6-[(morpholin-4-ylcarbonyl)amino]-5,16-dioxo-1,1′,2′,6,7,8,9,10,11,13a,14,15,16,16a-tetradecahydrospiro[cyclopropa[e]pyrrolo[1,2-a][1,4]diazacyclopentadecine-2,3′-pyrano[2,3-c]quinoline]-14a(5R)-carboxamide]",84.6,0.032,,
"Cc1nc2ccccc2c2c1O[C@]1(CC2)C[C@H]2C(=O)N[C@]3(C(=O)NS(=O)(=O)C4(C)CC4)C[C@H]3/C=C\CCCCC[C@H](NC(=O)N(C)c3ccccc3)C(=O)N2C1 [Example 292, (2R,6S,12Z,13aS,14aR,16aS)-5′-methyl-N-[(1-methylcyclopropyl)sulfonyl]-6-{[methyl(phenyl)carbamoyl]amino}-5,16-dioxo-1,1′,2′,6,7,8,9,10,11,13a,14,15,16,16a-tetradecahydrospiro[cyclopropa[e]pyrrolo[1,2-a][1,4]diazacyclopentadecine-2,3′-pyrano[2,3-c]quinoline]-14a(5H)-carboxamide]",27.4,0.077,,
"Cc1nc2ccccc2c2c1O[C@]1(CC2)C[C@H]2C(=O)N[C@]3(C(=O)NS(=O)(=O)C4(C)CC4)C[C@H]3/C=C\CCCCC[C@H](NC(=O)N(C(C)C)C(C)C)C(=O)N2C1 [Example 293, (2R,6S,12Z,13aS,14aR,16aS)-6-{[di(propan-2-yl)carbamoyl]amino}-5′-methyl-N-[(1-methylcyclopropyl)sulfonyl]-5,16-dioxo-1,1′,2′,6,7,8,9,10,11,13a,14,15,16,16a-tetradecahydrospiro[cyclopropa[e]pyrrolo[1,2-a][1,4]diazacyclopentadecine-2,3′-pyrano[2,3-c]quinoline]-14a(5H)-carboxamide]",4.87,0.021,,
"COc1ccc2nc(C(C)C)c3c(c2c1)CC[C@]1(C[C@H]2C(=O)N[C@]4(C(=O)NS(=O)(=O)C5(C)CC5)C[C@H]4/C=C\CCCCC[C@H](NC(=O)OC(C)(C)C(F)(F)F)C(=O)N2C1)O3 [Example 295, 1,1,1-trifluoro-2-methylpropan-2-yl [(2R,6S,12Z,13aS,14aR,16aS)-9′-methoxy-14a-{[(1-methylcyclopropyl)sulfonyl]carbamoyl}-5,16-dioxo-5′-(propan-2-yl)-1,1′,2′,5,6,7,8,9,10,11,13a,14,14a,15,16,16a-hexadecahydrospiro[cyclopropa[e]pyrrolo[1,2-a][1,4]diazacyclopentadecine-2,3′-pyrano[2,3-c]quinolin]-6-yl]carbamate]",,,2.36,0.024
"Cc1nc2ccc(OCC(F)(F)F)cc2c2c1O[C@]1(CC2)C[C@H]2C(=O)N[C@]3(C(=O)NS(=O)(=O)C4(C)CC4)C[C@H]3/C=C\CCCCC[C@H](NC(=O)OC(C)(C)C)C(=O)N2C1 [Example 296, tert-butyl [(2R,6S,12Z,13aS,14aR,16aS)-5′-methyl-14a-{[(1-methylcyclopropyl)sulfonyl]carbamoyl}-5,16-dioxo-9′-(2,2,2-trifluoroethoxy)-1,1′,2′,5,6,7,8,9,10,11,13a,14,14a,15,16,16a-hexadecahydrospiro[cyclopropa[e]pyrrolo[1,2-a][1,4]diazacyclopentadecine-2,3′-pyrano[2,3-c]quinolin]-6-yl]carbamate]",,,2.55,0.009
"Cc1nc2ccc(OC(F)(F)F)cc2c2c1O[C@]1(CC2)C[C@H]2C(=O)N[C@]3(C(=O)NS(=O)(=O)C4(C)CC4)C[C@H]3/C=C\CCCCC[C@H](NC(=O)OCC(C)(C)C)C(=O)N2C1 [Example 297, 2,2-dimethylpropyl [(2R,6S,12Z,13aS,14aR,16aS)-5′-methyl-14a-{[(1-methylcyclopropyl)sulfonyl]carbamoyl}-5,16-dioxo-9′-(trifluoromethoxy)-1,1′,2′,5,6,7,8,9,10,11,13a,14,14a,15,16,16a-hexadecahydrospiro[cyclopropa[e]pyrrolo[1,2-a][1,4]diazacyclopentadecine-2,3′-pyrano[2,3-c]quinolin]-6-yl]carbamate]",,,6.06,0.009
